Patent EP0195097A1, “Arachidonic acid analogues, processes for their preparation and their use in medicine” (BEECHAM GROUP PLC, priority 1985, dated 1986)

Columns and labels:
5-Lipoxygenase enzyme = molecular target: T1, 5-Lipoxygenase enzyme (Rattus norvegicus, UniProt P12527); assay: RBL-1 5-lipoxygenase screen; assay type: biochemical; conditions: 10,000g supernatant from RBL-1 cells; for inhibition at 50 µM: 50µM compound (cells marked *, footnote: inhibition at 50µM); for inhibition at 20 µM: 20µM compound, decrease in formation of 5-HETE and 5,12-diHETE relative to control
T1 construct: 5-Lipoxygenase enzyme was prepared as a 10,000g supernatant from RBL-1 cells; endogenous in cells; host or cells: RBL-1 cells (10,000g supernatant)
T1 sequence (P12527 1-673): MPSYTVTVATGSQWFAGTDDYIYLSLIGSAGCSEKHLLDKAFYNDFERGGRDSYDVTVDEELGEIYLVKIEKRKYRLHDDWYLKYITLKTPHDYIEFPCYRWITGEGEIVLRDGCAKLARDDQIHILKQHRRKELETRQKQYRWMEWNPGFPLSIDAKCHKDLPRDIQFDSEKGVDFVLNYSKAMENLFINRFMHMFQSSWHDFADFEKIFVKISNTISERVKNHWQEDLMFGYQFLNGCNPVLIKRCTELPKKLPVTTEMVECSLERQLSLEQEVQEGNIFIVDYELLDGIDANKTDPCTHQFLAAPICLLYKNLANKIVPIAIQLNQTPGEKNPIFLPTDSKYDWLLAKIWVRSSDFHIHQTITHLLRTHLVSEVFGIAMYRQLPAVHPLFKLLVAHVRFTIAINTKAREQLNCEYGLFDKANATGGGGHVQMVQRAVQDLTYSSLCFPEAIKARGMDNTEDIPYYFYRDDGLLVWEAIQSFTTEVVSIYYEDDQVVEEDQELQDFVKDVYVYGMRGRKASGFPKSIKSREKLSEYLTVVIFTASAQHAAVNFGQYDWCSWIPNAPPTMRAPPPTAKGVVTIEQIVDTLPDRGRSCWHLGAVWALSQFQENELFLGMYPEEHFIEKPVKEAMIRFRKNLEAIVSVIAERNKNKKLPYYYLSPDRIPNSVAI
Method: 1) RBL-1 5-LIPOXYGENASE SCREEN
5-Lipoxygenase enzyme was prepared as a 10,000g supernatant from RBL-1 cells by the method of Jakschik (Jakschik, B.A., F.F. Sun, L.M.Lee, and M.M. Steinhoff, 1980, Biochem. Biophys. Res.Comm. 95, 103). The 10,000g supernatant was diluted with homogenization buffer to the equivalent of 1.5 - 2.5 x 10^7 cells. ml.-l and made 2mM with respect to CaCl2. Aliquots of 0.5ml were then dispensed into tubes, and incubated at 29 °C with 5pl ethanol or compound in ethanol at the desired concentration for 2min. Then [1-^14C] arachidonic acid was added in buffer to give a final concentration of 6.3µM and 0.2pCi per incubation, and the reaction continued at 29 °C for 2min. The reaction was terminated by adding lml of acetone and cooling on ice, 0.5ml of ice-cold saline and 100pl of 2M formic acid were added, and the mixture was extracted with 2 x 2ml of chloroform. The extract was stored under N2 at -20 °C until analysis by chromatography. Activity was measured as the percentage of total radioactivity found in 5-HETE and 5,12-diHETE, and inhibition calculated as the decrease in formation of the sum of these two species in compound-treated incubates relative to control incubations.

cyclo-oxygenase = molecular target: T2, cyclo-oxygenase (Bos taurus, UniProt O62664); assay: Cyclo-oxygenase screen; assay type: biochemical; conditions: 50µM compound; bovine seminal vesicle microsomes; decrease in prostaglandin formation
T2 construct: comprising 0.96mg lyophilised bovine seminal vesicle microsomes; from tissue; host or cells: bovine seminal vesicle microsomes (lyophilised)
T2 sequence (O62664 25-600): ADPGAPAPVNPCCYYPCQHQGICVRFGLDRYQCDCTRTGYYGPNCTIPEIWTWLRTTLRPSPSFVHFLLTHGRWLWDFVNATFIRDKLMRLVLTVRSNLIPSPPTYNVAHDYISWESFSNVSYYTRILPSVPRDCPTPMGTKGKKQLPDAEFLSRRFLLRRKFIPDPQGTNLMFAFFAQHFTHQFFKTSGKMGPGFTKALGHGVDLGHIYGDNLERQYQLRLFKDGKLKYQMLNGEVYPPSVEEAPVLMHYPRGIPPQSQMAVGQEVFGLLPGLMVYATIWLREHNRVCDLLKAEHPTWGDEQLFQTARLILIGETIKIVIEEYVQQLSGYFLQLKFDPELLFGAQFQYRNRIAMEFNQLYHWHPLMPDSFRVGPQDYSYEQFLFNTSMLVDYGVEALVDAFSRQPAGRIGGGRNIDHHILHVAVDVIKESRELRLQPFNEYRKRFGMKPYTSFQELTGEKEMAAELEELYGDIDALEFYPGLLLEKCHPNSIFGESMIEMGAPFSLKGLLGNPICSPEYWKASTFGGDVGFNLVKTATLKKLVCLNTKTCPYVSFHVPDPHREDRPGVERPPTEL
Method: 2) Cyclo-oxygenase Screen
Compounds were preincubated with the incubation constitutents for 5 min at 37 °C before the reaction was started by the addition of the arachidonic acid. The reaction was continued at 37 °C for 2 min, then stopped by placing the incubations on ice and the addition of 1.2ml 0.2M citric acid. Unmetabolised substrate and prostaglandin products were extracted in ethyl acetate (2 x 4ml), the combined extracts washed with 0.8ml water, and separated by thin-layer chromatography (Kieselgel GF254 plates in ethyl acetate:acetone:glacial acetic acid, 90:10:1, v/v). Recovery was 65-80%. The regions on the thin-layer chromatography plate that chromatographed with authentic arachidonic acid or prostaglandins E2 and F2a (Rf's 0.70, 0.28 and 0.16 respectively) were scraped and the radioactivity in each determined by liquid scintillation counting with a correction for quenching being made by the external standard-channels ratio method. Inhibition of cyclo-oxygenase activity was calculated from the decrease in prostaglandin formation. Each compound concentration was tested in triplicate and the 50% inhibitory concentration, if determined, was calculated by linear regression from the inhibitory data at, at least three different compound concentrations.

inhibition at 50 µM (5-Lipoxygenase enzyme) [%]	inhibition at 50 µM (cyclo-oxygenase) [%]	inhibition at 20 µM (5-Lipoxygenase enzyme) [%]	Structure (SMILES)
55	59		CCCCCCCCCCCC#Cc1ccccc1C=C(C(=O)O)C(=O)O [Example 25]
45	38		CCCCCCC#Cc1cccc(OCCCC(C(=O)O)C(=O)O)c1 [Example 58]
		84	CCCCCCCCCCC/C=C\c1cccc(CC(C(=O)O)C(=O)O)c1 [Example 66]
	59		CCCCCCCCCCCC#Cc1ccc(C=C(C(=O)O)C(=O)O)cc1 [Example 27]
	76	63	CCCCCCCCCCCC#Cc1ccccc1CC(C(=O)O)C(=O)O [Example 28]
	40	62.5	CCCCCC/C=C\c1cccc(OCCCC(C(=O)O)C(=O)OCC)c1 (centres unmarked) [Example 68]
		16	CCCCCCC#Cc1ccc(C=C(C(=O)O)C(=O)O)cc1 [Example 50]
		54	CCCCCCC#Cc1ccccc1OCCCC(C(=O)O)C(=O)O [Example 57]
52			CCCCCCC#Cc1cccc(OCCCC(C(=O)O)C(=O)OCC)c1 (centres unmarked) [Example 56]
		44	CCCCCC/C=C\c1cccc(OCCCC(C(=O)O)C(=O)O)c1 [Example 69]
60	70		CCCCCCCCCCCC#Cc1ccccc1C=C(C(=O)O)C(=O)OCC [Example 24]
		25	CCCCCCCCCCCC#Cc1cccc(C=C(C(=O)O)C(=O)O)c1 [Example 51]
		15	CCCCCCC#Cc1ccc(C=C(C(=O)O)C(=O)OC)cc1 [Example 49]
		51	CCCCCCCCCCCC#Cc1cccc(CC(C(=O)O)C(=O)O)c1 [Example 52]
		67	CCCCCCCCCCC/C=C\c1ccccc1C=C(C(=O)O)C(=O)O [Example 29]
		82	CCCCCCCCCCC/C=C\c1cccc(C=C(C(=O)O)C(=O)O)c1 [Example 63]
		49	CCCCCC/C=C\c1ccc(C=C(C(=O)O)C(=O)O)cc1 [Example 64]
		63	CCCCCCC#Cc1ccccc1OCCCC(C(=O)O)C(=O)OCC (centres unmarked) [Example 55]
